Tested on: dorsal root ganglion (DRG) neurons
Assay: DRG neurons replating culture, axon growth
Type: cell-based, mice
Conditions: one day treatment, then replated 20 hours under continued treatment, vs DMSO vehicle
Method: FIGS. 3A-3B Edaravone promotes axon elongation in DRG replating culture. (FIG. 3A) Representative image of replated DRG neurons treated by the DMSO vehicle control and indicated concentration of edaravone. Scale bar: 400 μm. (FIG. 3B) Quantification of the longest neuron length of the tested concentrations of edaravone. Dots represent the measurement of each neuron.
Primary culture and replating culture of DRG neurons were performed as following protocols. L3-L5 dorsal root ganglia (DRGs) were dissected from adult WT mice and digested in 0.5% collagenase for 90 minutes. Subsequently, the digestion medium was replaced with culture medium (Neurobasal-A supplemented with penicillin-streptomycin and B-27). The digested DRGs were then triturated with a pipette 20-30 times to isolate DRG neurons. The isolated DRG neurons were plated onto a 6-well plate pre-coated with Poly-D-Lysine and laminin. Primary cultured DRG neurons received 1 μM edaravone, 10 μM edaravone or DMSO vehicle treatment for one day. After then, neurons were resuspended and replated to another dish under continue treatment of vehicle/edaravone. The replating culture was terminated with 4% PFA after 20 hours. Tuj1 staining was performed to visualize DRG cell bodies and neurites.
Adult mice dorsal root ganglion (DRG) neurons replating culture was used to investigate the effect of edaravone on axon growth. […]

## CC1=NN(c2ccccc2)C(=O)C1 [edaravone, 5-methyl-2-phenyl-2,4-dihydro-3H-pyrazol-3-one]
1 μM
  axon (neurite) growth, longest neuron length: significant growth-promoting effect
10 μM
  axon (neurite) growth, longest neuron length: significant growth-promoting effect

Reference: patent US20240374570A1, “DRIVING AXON REGENERATION BY NRF2 OVEREXPRESSION AND EDARAVONE APPLICATION” (The Hong Kong University of Science and Technology, priority 2023, published 2024)
